From US20190110476A1, “NOVEL ISOTHIAZOLAMIDES, PROCESSES FOR THEIR PREPARATION AND THEIR USE AS FUNGICIDES” (priority 2014, published 2019)
Marks after values point to notes of the source that are not given here.

assay: Measurement of LogP values by HPLC on reversed phase columns (EEC directive 79/831 Annex V.A8); assay type: physicochemical
Procedure: The abbreviations and numerations of the substituent positions used in the context of the present invention and in the following Tables are explained in detail in the section Examples hereinafter. Also, the LogP values indicated in the following Tables are explained in detail in the section Examples hereinafter. In case LogP values for different diastereoisomers of a specific compound are […], said LogP values are […] by a “+”. […] Measurement of LogP values was performed according to EEC directive 79/831 Annex V.A8 by HPLC (High Performance Liquid Chromatography) on reversed phase columns with the following methods: […] Lambda-max-values were determined using UV-spectra from 200 nm to 400 nm and the peak values of the chromatographic signals

LogP | LogP [a] | LogP [b] | Compound
1.66[a] |  |  | Cc1c(N)nsc1C(=O)NCc1ccc(C(F)F)cc1 [I-156]
2.40[a] |  |  | Nc1nsc(C(=O)NCC2CCCCC2)c1Cl [I-002]
4.33[a] |  |  | COc1ccc(CNc2nsc(C(=O)NCC3CCCC(C(F)(F)F)C3)c2Cl)cc1 (centres unmarked) [I-106]
 | 4.36^[a] |  | COc1ccc(CNc2nsc(C(=O)OC(C)C)c2Cl)cc1 [E-VII-004]
2.87[a] |  |  | CCC(C)CNC(=S)c1snc(N)c1Cl (centres unmarked) [I-1022]
1.81[a] |  |  | Nc1nsc(C(=O)NCc2c(F)cccc2F)c1Cl [I-128]
 | 2.45^[a] |  | CCOC(=O)c1snc(NC(=O)c2ccccc2)c1Cl [E-VII-020]
2.46[a] |  |  | O=C(NCC1CCCCC1)c1snc(NCCCO)c1Cl [I-676]
 | 2.21^[a] |  | COc1ccc(CNc2nsc(C(=O)O)c2Cl)cc1 [E-VIII-002]
1.66[a] |  |  | Cc1ccc(CNC(=O)c2snc(N)c2Cl)o1 [I-814]
1.67[a] |  |  | COc1ccc(CNc2nsc(C(=O)NC3CCCc4ccncc43)c2Cl)cc1 (centres unmarked) [I-1310]
 | 4.15^[a] |  | O=C(NCc1ccccc1F)c1snc(N(S(=O)(=O)c2ccccc2)S(=O)(=O)c2ccccc2)c1Cl [II-012]
 | 4.24 | 4.14 | COc1ccc(CNc2nsc(C(=O)N3CCCc4cccc(C)c43)c2Cl)cc1 [II-067]
0.79[a] |  |  | Cc1c(N)nsc1C(=O)NCC1CCCC1O (single isomer, unassigned) [I-706]
2.86[a] |  |  | O=C(NC1CCCC1c1ccccc1)c1snc(NC(=O)C2CC2)c1Cl (centres unmarked) [I-297]
2.73[a] |  |  | COc1ccc(CNc2nsc(C(=O)NC(c3cncnc3)C(C)C)c2Cl)cc1 (centres unmarked) [I-1251]
5.45[a] |  |  | O=C(NCc1ccccc1F)c1snc(N(Cc2ccccc2)Cc2ccccc2)c1-c1ccc(F)cc1 [I-320]
4.02[a] |  |  | COc1ccc(CNc2nsc(C(=O)NCC3=CCCCC3)c2Cl)cc1 [I-084]
2.99[a] |  |  | CC(=O)N(C(C)=O)c1nsc(C(=O)NCc2ccc(Cl)cc2)c1Cl [I-571]
4.29[a] |  |  | COc1ccc(CNc2nsc(C(=O)NCc3ncc(C(F)(F)F)cc3Cl)c2Cl)cc1 [I-268]
2.88[a] |  |  | Nc1nsc(C(=O)NCc2cc(Cl)ccc2C(F)(F)F)c1Cl [I-327]
6.25[a] |  |  | Cc1cc(C)c(CN(C(=O)c2cc(N(Cc3ccccc3)Cc3ccccc3)ns2)C2CC2)c(C)c1 [I-907]
4.69[a] |  |  | COc1ccc(CNc2nsc(C(=O)NCc3ccc(C(C)(C)C)cc3)c2Cl)cc1 [I-1199]

LogP | LogP [a] | LogP [b] | Compound
2.00[a] |  |  | Cc1c(N)nsc1C(=O)NCc1ccc(Cl)cc1F [I-159]
 | 5.34^[a] |  | O=C(NC1CCCC2CCCCC21)c1snc(Cl)c1Cl (centres unmarked) [E-II-012]
1.52[a] |  |  | COc1ccc(CNc2nsc(C(=O)NCc3ccncc3C)c2Cl)cc1 [I-1314]
4.82[a] |  |  | O=C(NC1CCCC2CCCCC21)c1snc(NCC(F)(F)F)c1NCC(F)(F)F (centres unmarked) [I-631]
4.34[a] |  |  | COc1ccc(CNc2nsc(C(=O)NCc3ccc(F)c(Oc4ccccc4)c3)c2Cl)cc1 [I-223]
2.57[a] |  |  | CCn1nc(C)c(CNC(=O)c2snc(NCc3ccc(OC)cc3)c2Cl)c1C [I-1214]
1.69[a] |  |  | Cc1c(N)nsc1C(=O)NCc1ccc(F)c(F)c1 [I-149]
5.42[a] |  |  | COc1ccc(CNc2nsc(C(=O)Nc3cccc4c3C(C)CC4(C)C)c2Cl)cc1 (centres unmarked) [I-880]
2.14[a] |  |  | Nc1nsc(C(=O)NCC2CC=CCC2)c1Cl (centres unmarked) [I-085]
5.51[a] |  |  | COc1ccc(CN(C)c2nsc(C(=O)N[C@@H](C)C3CCCCC3)c2Cl)cc1 [I-087]
 | 3.00^[a] |  | COc1ccc(CNc2nscc2Cl)cc1 [Z-A-005]
2.12[a] |  |  | N#Cc1ccc(CNC(=O)c2snc(NC(=O)C(F)(F)F)c2Cl)cc1 [I-812]
 | 1.96^[a] |  | O=C(NCc1cc(F)c(F)c(F)c1)c1snc(N=S2CCCC2)c1Cl [II-045]
1.64[a] |  |  | Cc1c(N)nsc1C(=O)NCc1ccc(F)cc1F [I-041]
3.48[a] |  |  | CCCC(c1ccccc1)N(C(=O)c1snc(N)c1Cl)C1CC1 (centres unmarked) [I-908]
4.46[a] |  |  | COc1ccc(CNc2nsc(C(=O)NC3CCCC(C)C3C)c2Cl)cc1 (centres unmarked) [I-1210]
2.26[a] |  |  | CCOc1c(N)nsc1C(=O)NCc1ccc(Cl)cc1 [I-731]
4.56[a] |  |  | COc1ccc(CNc2nsc(C(=O)NCC3CCC(C)CC3)c2Cl)cc1 (centres unmarked) [I-675]
2.26[a] |  |  | COc1ccc(CNc2nsc(C(=O)NCc3cnccn3)c2Cl)cc1 [I-1231]
2.51[a] |  |  | Nc1nsc(C(=O)NCC2CCCCC2C(F)(F)F)c1Cl (centres unmarked) [I-1554]
 | 4.37 | 4.25 | COc1ccc(CNc2nsc(C(=O)N3CCCc4ccc(C(F)(F)F)cc43)c2Cl)cc1 [II-062]
 | 4.49^[a] |  | O=C(O)c1snc(N(Cc2ccccc2)Cc2ccccc2)c1-c1ccc(F)cc1 [E-VIII-010]
3.12[a] |  |  | Nc1nsc(C(=S)NCc2ccc(Cl)cc2)c1Cl [I-1026]

Continued, compound first:

Compound | LogP | LogP [a] | LogP [b]
Cc1c(N)nsc1C(=O)NCc1cccc(F)c1F [I-147] | 1.64[a] |  | 
O=C(NCC1CCCCO1)c1snc(N=C(c2ccccc2)c2ccccc2)c1Cl (centres unmarked) [II-008] |  | 4.55^[a] | 
CCCS(CC)=Nc1nsc(C(=O)NCc2ccc(F)cc2F)c1F (centres unmarked) [II-094] |  | 1.77^[a] | 
COc1ccc(CNc2nsc(C(=O)NCCC3=CCCCC3)c2Cl)cc1 [I-1266] | 4.44[a] |  | 
Nc1cc(C(=O)NCc2cccc(F)c2)sn1 [I-304] | 1.46[a] |  | 
CC(=O)N(C(C)=O)c1nsc(C(=O)N(C(C)C)C(C)C)c1Cl [I-975] | 2.77[a] |  | 
COc1ccc(CN(C(=O)C(=O)N[C@H](C)C2CCCCC2)c2nsc(C(=O)N[C@H](C)C3CCCCC3)c2Cl)cc1 [I-072] | 4.54[a] |  | 
C#CCNc1nsc(C(=O)NCc2ccc(Cl)cc2)c1Cl [I-581] | 2.97[a] |  | 
Nc1nsc(C(=O)NC2CCCCC2c2ccccc2)c1Cl (centres unmarked) [I-287] | 3.02[a] |  | 
Nc1nsc(C(=O)Nc2cc(F)cc(F)c2)c1Cl [I-866] | 2.54[a] |  | 
Nc1nsc(C(=O)NC2CCCCC2)c1-c1ccc(F)cc1 [I-334] | 2.66[a] |  | 
CCC(C)C(C)N(C(=O)c1snc(NCc2ccc(OC)cc2)c1Cl)C1CC1 (centres unmarked) [I-894] | 4.85[a] |  | 
COc1ccc(CNc2nsc(C(=O)NC3(c4ccccc4Br)CC3)c2Cl)cc1 [I-1322] | 4.40[a] |  | 
COc1ccc(CNc2nsc(C(=O)NC3CCC3)c2Cl)cc1 [I-1195] | 3.15[a] |  | 
Nc1nsc(C(=O)NCC2CCCCC2)c1C(F)F [I-417] | 2.66[a] |  | 
CCC(=O)N(C(=O)CC)c1nsc(C(=O)NCc2ccc(C#N)cc2)c1Cl [I-810] | 2.89[a] |  | 
CCc1cccc(C)c1CN(C(=O)c1snc(NCc2ccc(OC)cc2)c1Cl)C1CC1 [I-898] | 5.17[a] |  | 
O=C(NCC1CCCCC1)c1snc(N=S(Cc2ccccc2)Cc2ccccc2)c1Cl [II-084] |  | 4.38^[a] | 
COc1ccc(CNc2nsc(C(=O)NCC3OCCc4ccccc43)c2Cl)cc1 (centres unmarked) [I-1208] | 3.72[a] |  | 
Cc1c(N)nsc1C(=O)NCc1c(F)cc(F)cc1F [I-583] | 1.69[a] |  | 
COc1ccc(CNc2nsc(C(=O)NC3(c4ccccc4Cl)CC3)c2Cl)cc1 [I-1327] | 4.24[a] |  | 
COc1ccc(CNc2nsc(C(=O)NC3CCC4CCCCC4C3)c2Cl)cc1 (centres unmarked) [I-1216] | 5.24[a] |  | 
COc1ccc(CNc2nsc(C(=O)NCc3ccc(F)c(C)c3)c2Cl)cc1 [I-350] | 3.89[a] |  | 

Compound | LogP | LogP [a] | LogP [b]
COc1ccc2c(c1)CCCN2C(=O)c1snc(N)c1Cl [II-017] |  | 2.11 | 2.06
Nc1nsc(C(=O)NCC2CCOC2)c1Cl (centres unmarked) [I-011] | 0.73[a] |  | 
Nc1cc(C(=O)N(Cc2c(F)cccc2Cl)C2CC2)sn1 [I-909] | 2.28[a] |  | 
CCCCC(=O)Nc1nsc(C(=O)NCC2CCCCC2)c1Cl [I-450] | 3.20[c] |  | 
COc1ccc(CNc2nsc(C(=O)N(C3CC3)C(C)c3cc(Cl)cc(Cl)c3)c2Cl)cc1 (centres unmarked) [I-928] | 5.36[a] |  | 
COc1ccc(CNc2nsc(C(=O)NC(C)(C)c3cccc(C(F)(F)F)c3)c2Cl)cc1 [I-1232] | 4.44[a] |  | 
O=C(NCCc1ccccc1)c1snc(N(Cc2ccccc2)Cc2ccccc2)c1-c1ccc(F)cc1 [I-983] | 5.68[a] |  | 
COc1ccc(CNc2nsc(C(=O)N(Cc3c(Cl)cccc3C(F)(F)F)C3CC3)c2Cl)cc1 [I-946] | 4.91[a] |  | 
O=C(NCc1ccc(F)cc1F)c1cc(NC(=O)C(F)(F)F)ns1 [I-398] | 2.58[a] |  | 
Nc1nsc(C(=S)NCc2ccc(F)cc2F)c1Cl [I-1016] | 2.74[a] |  | 
COc1ccc(CNc2nsc(C(=O)NCc3ccc(Oc4ccccc4)cc3)c2Cl)cc1 [I-221] | 4.41[a] |  | 
Nc1nsc(C(=O)NC2CCc3ccccc32)c1Cl (centres unmarked) [I-140] | 2.30[a] |  | 
CN(C)C=Nc1nsc(C(=O)NCc2ccc(Cl)cc2)c1Cl [II-031] |  | 2.41^[a] | 
COc1ccc(CNc2nsc(C(=O)NC(C)c3ccc(C(C)C)cc3)c2Cl)cc1 (centres unmarked) [I-1207] | 4.69[a] |  | 
O=C(NCC1CCCCC1)c1cc(N(Cc2ccccc2)Cc2ccccc2)ns1 [I-540] | 5.22[a] |  | 
CC(C)N(Cc1ccc(Cl)cc1Cl)C(=O)c1cc(N)ns1 [I-937] | 3.08[a] |  | 
COc1ccc(CNc2nsc(C(=O)NCC34CCC(CC3)C4)c2Cl)cc1 [I-739] | 4.29[a] |  | 
CC(C)(C)C(=O)Nc1nsc(C(=O)NCC2CCCCC2)c1Cl [I-172] | 3.18[a] |  | 
COc1ccc(CNc2nsc(C(=O)N3CCc4c(Cl)ccc(Cl)c4C3)c2Cl)cc1 [II-068] |  | 4.66 | 4.55
Nc1nsc(C(=O)NCc2ccc(Oc3ccccc3)cc2)c1Cl [I-227] | 2.94[a] |  | 
Nc1nsc(C(=O)NC2CCCCC2)c1Br [I-841] | 2.11[a] |  | 
CCOC(=O)c1snc(NC(=O)c2ccc(F)cc2)c1Cl [E-VII-010] |  | 2.62^[a] | 
